Reference: patent US8299048B2, “Hexahydrocyclopentyl[f]indazole sulfonamides and derivatives thereof as selective glucocorticoid receptor modulators” (Merck Sharp & Dohme Corp., priority 2008, dated 2012)

target: T1, glucocorticoid receptor (Homo sapiens, UniProt P04150); test: Ligand binding assay (GR BIND)
T1 construct: endogenous in cells
T1 sequence (P04150 1-777): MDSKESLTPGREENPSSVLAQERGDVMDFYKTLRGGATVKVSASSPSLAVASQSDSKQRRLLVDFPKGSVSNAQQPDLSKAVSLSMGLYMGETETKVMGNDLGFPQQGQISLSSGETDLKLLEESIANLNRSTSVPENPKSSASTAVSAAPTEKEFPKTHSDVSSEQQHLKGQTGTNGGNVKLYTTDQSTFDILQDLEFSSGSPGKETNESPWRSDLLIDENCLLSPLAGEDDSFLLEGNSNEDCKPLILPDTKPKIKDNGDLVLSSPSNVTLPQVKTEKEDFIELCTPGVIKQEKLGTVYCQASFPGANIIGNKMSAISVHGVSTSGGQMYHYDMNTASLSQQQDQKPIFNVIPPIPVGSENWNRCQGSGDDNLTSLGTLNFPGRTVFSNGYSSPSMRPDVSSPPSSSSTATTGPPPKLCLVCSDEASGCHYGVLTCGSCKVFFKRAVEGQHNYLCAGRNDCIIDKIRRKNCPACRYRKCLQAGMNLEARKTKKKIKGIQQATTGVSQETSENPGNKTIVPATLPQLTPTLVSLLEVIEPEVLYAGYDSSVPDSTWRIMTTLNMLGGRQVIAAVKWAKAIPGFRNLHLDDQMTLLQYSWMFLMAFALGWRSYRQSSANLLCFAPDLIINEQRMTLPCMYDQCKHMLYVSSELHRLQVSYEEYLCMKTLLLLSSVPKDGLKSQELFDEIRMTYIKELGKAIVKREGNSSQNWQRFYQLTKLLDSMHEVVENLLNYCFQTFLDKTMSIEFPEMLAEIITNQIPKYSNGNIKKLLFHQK
Summary of the method: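 Cytosol from freeze–thawed cells in TEGM (pH 7.2, 10 mM molybdate) was incubated overnight at 4 °C with compound and [3H]-dexamethasone trace (added as 6 nM solution), 2% EtOH final. Bound ligand was captured on hydroxylapatite, filtered, washed and scintillation counted. Values were calculated with dexamethasone as reference.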

| Structure (SMILES) | Ki [nM] |
| --- | --- |
| C[C@]12Cc3cnn(-c4ccc(F)cc4)c3C=C1CC[C@@H]2CN(CC(OS(=O)(=O)CC(F)(F)F)c1ccccn1)S(=O)(=O)CC(F)(F)F (stereo partly drawn) [Example 145, 2-{{[(4αR,5S)-1-(4-fluorophenyl)-4α-methyl-1,4,4α,5,6,7-hexahydrocyclopenta[f]indazol-5-yl]methyl}[(2,2,2-trifluoroethyl)sulfonyl]amino}-1-pyridin-2-ylethyl 2,2,2-trifluoroethanesulfonate] | 1 |
| Cn1cc(S(=O)(=O)N(CCc2ccccn2)C[C@H]2CCC3=Cc4c(cnn4-c4ccc(F)cc4)C[C@@]32C)c(C(F)(F)F)n1 [Example 150, N-{[(4αR,5S)-1-(4-fluorophenyl)-4α-methyl-1,4,4α,5,6,7-hexahydrocyclopenta[f]indazol-5-yl]methyl}-1-methyl-N-(2-pyridin-2-ylethyl)-3-(trifluoromethyl)-1H-pyrazole-4-sulfonamide] | 1.5 |
| CCCS(=O)(=O)N(CCc1ccccn1)C[C@H]1CCC2=Cc3c(cnn3-c3ccc(F)cc3)C[C@@]21C [Example 151, N-{[(4αR,5S)-1-(4-fluorophenyl)-4α-methyl-1,4,4α,5,6,7-hexahydrocyclopenta[f]indazol-5-yl]methyl}-N-(2-pyridin-2-ylethyl)propane-1-sulfonamide] | 1.3 |
| C[C@]12Cc3cnn(-c4ccc(F)cc4)c3C=C1CC[C@@H]2CN(CCc1ccccn1)S(=O)(=O)CCN1C(=O)c2ccccc2C1=O [Example 152, 2-(1,3-dioxo-1,3-dihydro-2H-isoindol-2-yl)-N-{[(4αR,5S)-1-(4-fluorophenyl)-4α-methyl-1,4,4α,5,6,7-hexahydrocyclopenta[f]indazol-5-yl]methyl}-N-(2-pyridin-2-ylethyl)ethanesulfonamide] | 1.6 |
| C[C@]12Cc3cnn(-c4ccc(F)cc4)c3C=C1CC[C@@H]2CN(CCc1ccccn1)S(=O)(=O)Cc1ccccc1C(F)(F)F [Example 153, N-{[(4αR,5S)-1-(4-fluorophenyl)-4α-methyl-1,4,4α,5,6,7-hexahydrocyclopenta[f]indazol-5-yl]methyl}-N-(2-pyridin-2-ylethyl)-1-[2-(trifluoromethyl)phenyl]methanesulfonamide] | 1.2 |
| CCCS(=O)(=O)N(CC(O)C(F)F)C[C@H]1CCC2=Cc3c(cnn3-c3ccc(F)cc3)C[C@@]21C (stereo partly drawn) [Example 155, N-(3,3-difluoro-2-hydroxypropyl)-N-{[(4αR,5S)-1-(4-fluorophenyl)-4α-methyl-1,4,4α,5,6,7-hexahydrocyclopenta[f]indazol-5-yl]methyl}propane-1-sulfonamide] | 2.9 |
| Cn1cc(S(=O)(=O)N(CC(O)C(F)F)C[C@H]2CCC3=Cc4c(cnn4-c4ccc(F)cc4)C[C@@]32C)c(C(F)(F)F)n1 (stereo partly drawn) [Example 156, N-(3,3-difluoro-2-hydroxypropyl)-N-{[(4αR,5S)-1-(4-fluorophenyl)-4α-methyl-1,4,4α,5,6,7-hexahydrocyclopenta[f]indazol-5-yl]methyl}-1-methyl-3-(trifluoromethyl)-1H-pyrazole-4-sulfonamide] | 2.5 |
| Cn1cc(S(=O)(=O)N(CC(O)c2ccccn2)C[C@H]2CCC3=Cc4c(cnn4-c4ccc(F)cc4)C[C@@]32C)c(C(F)(F)F)n1 (stereo partly drawn) [Example 157, N-{[(4αR,5S)-1-(4-fluorophenyl)-4α-methyl-1,4,4α,5,6,7-hexahydrocyclopenta[f]indazol-5-yl]methyl}-N-(2-hydroxy-2-pyridin-2-ylethyl)-1-methyl-3-(trifluoromethyl)-1H-pyrazole-4-sulfonamide] | 0.8 |
| C[C@]12Cc3cnn(-c4ccc(F)cc4)c3C=C1CC[C@@H]2CN(CC=O)S(=O)(=O)c1ccccc1F [Example 158, 2-fluoro-N-{[(4αR,5S)-1-(4-fluorophenyl)-4α-methyl-1,4,4α,5,6,7-hexahydrocyclopenta[f]indazol-5-yl]methyl}-N-(2-oxoethyl)benzenesulfonamide] | 4.2 |
| COC(=O)c1cc(Cl)ccc1CCN(C[C@H]1CCC2=Cc3c(cnn3-c3ccc(F)cc3)C[C@@]21C)S(=O)(=O)CC(F)(F)F [Example 160, methyl 5-chloro-2-(2-{{[(4αR,5S)-1-(4-fluorophenyl)-4α-methyl-1,4,4α,5,6,7-hexahydrocyclopenta[f]indazol-5-yl]methyl}[(2,2,2-trifluoroethyl)sulfonyl]amino}ethyl)benzoate] | 3.4 |
| Cc1noc(C)c1S(=O)(=O)NC[C@H]1CCC2=Cc3c(cnn3-c3ccc(F)cc3)C[C@@]21C [Example 161, N-{[(4αR,5S)-1-(4-fluorophenyl)-4α-methyl-1,4,4α,5,6,7-hexahydrocyclopenta[f]indazol-5-yl]methyl}-3,5-dimethylisoxazole-4-sulfonamide] | 4.8 |

Further lines, results first:

| Ki [nM] | Structure (SMILES) |
| --- | --- |
| 13.3 | C[C@]12Cc3cnn(-c4ccc(F)cc4)c3C=C1CC[C@@H]2CN(CC(O)c1cccnc1)S(=O)(=O)CC(F)(F)F (stereo partly drawn) [Example 143, 2,2,2-trifluoro-N-{[(4αR,5S)-1-(4-fluorophenyl)-4α-methyl-1,4,4α,5,6,7-hexahydrocyclopenta[f]indazol-5-yl]methyl}-N-(2-hydroxy-2-pyridin-3-ylethyl)ethanesulfonamide] |
| 0.9 | C[C@]12Cc3cnn(-c4ccc(F)cc4)c3C=C1CC[C@@H]2CN(CC(O)c1ccncc1)S(=O)(=O)CC(F)(F)F (stereo partly drawn) [Example 144, 2,2,2-trifluoro-N-{[(4αR,5S)-1-(4-fluorophenyl)-4α-methyl-1,4,4α,5,6,7-hexahydrocyclopenta[f]indazol-5-yl]methyl}-N-(2-hydroxy-2-pyridin-4-ylethyl)ethanesulfonamide] |
| 0.8 | CC(CN(C[C@H]1CCC2=Cc3c(cnn3-c3ccc(F)cc3)C[C@@]21C)S(=O)(=O)CC(F)(F)F)c1cccnc1 (stereo partly drawn) [Example 146, 2,2,2-trifluoro-N-{[(4αR,5S)-1-(4-fluorophenyl)-4α-methyl-1,4,4α,5,6,7-hexahydrocyclopenta[f]indazol-5-yl]methyl}-N-(2-pyridin-3-ylpropyl)ethanesulfonamide] |
| 3.2 | C[C@]12Cc3cnn(-c4ccc(F)cc4)c3C=C1CC[C@@H]2CN(CCC(N)C(F)(F)F)S(=O)(=O)CC(F)(F)F (stereo partly drawn) [Example 147, N-(3-amino-4,4,4-trifluorobutyl)-2,2,2-trifluoro-N-{[(4aR,5S)-1-(4-fluorophenyl)-4α-methyl-1,4,4α,5,6,7-hexahydrocyclopenta[f]indazol-5-yl]methyl}ethanesulfonamide] |
| 1.6 | CCCS(=O)(=O)N(CC(O)C(F)(F)F)C[C@H]1CCC2=Cc3c(cnn3-c3ccc(F)cc3)C[C@@]21C (stereo partly drawn) [Example 148, N-{[(4αR,5S)-1-(4-fluorophenyl)-4α-methyl-1,4,4α,5,6,7-hexahydrocyclopenta[f]indazol-5-yl]methyl}-N-(3,3,3-trifluoro-2-hydroxypropyl)propane-1-sulfonamide] |
| 1.8 | C[C@]12Cc3cnn(-c4ccc(F)cc4)c3C=C1CC[C@@H]2CN(CC(O)C(F)(F)F)S(=O)(=O)Cc1cccnc1 (stereo partly drawn) [Example 149, N-{[(4αR,5S)-1-(4-fluorophenyl)-4α-methyl-1,4,4α,5,6,7-hexahydrocyclopenta[f]indazol-5-yl]methyl}-1-pyridin-3-yl-N-(3,3,3-trifluoro-2-hydroxypropyl)methanesulfonamide] |
| 1.3 | C[C@]12Cc3cnn(-c4ccc(F)cc4)c3C=C1CC[C@@H]2CN(CC(O)C(F)F)S(=O)(=O)Cc1cccnc1 (stereo partly drawn) [Example 154, N-(3,3-difluoro-2-hydroxypropyl)-N-{[(4αR,5S)-1-(4-fluorophenyl)-4α-methyl-1,4,4α,5,6,7-hexahydrocyclopenta[f]indazol-5-yl]methyl}-1-pyridin-3-ylmethanesulfonamide] |
| 1.9 | COC(=O)c1ccccc1CCN(C[C@H]1CCC2=Cc3c(cnn3-c3ccc(F)cc3)C[C@@]21C)S(=O)(=O)CC(F)(F)F [Example 159, methyl 2-(2-{{[(4αR,5S)-1-(4-fluorophenyl)-4α-methyl-1,4,4α,5,6,7-hexahydrocyclopenta[f]indazol-5-yl]methyl}[(2,2,2-trifluoroethyl)sulfonyl]amino}ethyl)benzoate] |
| 0.5 | COC(=O)c1ccccc1CS(=O)(=O)N(CC(O)C(F)(F)F)C[C@H]1CCC2=Cc3c(cnn3-c3ccc(F)cc3)C[C@@]21C (stereo partly drawn) [Example 162, methyl 2-({[{[(4αR,5S)-1-(4-fluorophenyl)-4α-methyl-1,4,4α,5,6,7-hexahydrocyclopenta[f]indazol-5-yl]methyl}(3,3,3-trifluoro-2-hydroxypropyl)amino]sulfonyl}methyl)benzoate] |
| 1.7 | C[C@]12Cc3cnn(-c4ccc(F)cc4)c3C=C1CC[C@@H]2CN(CCc1ccccc1CO)S(=O)(=O)CC(F)(F)F [Example 163, 2,2,2-trifluoro-N-{[(4αR,5S)-1-(4-fluorophenyl)-4α-methyl-1,4,4α,5,6,7-hexahydrocyclopenta[f]indazol-5-yl]methyl}-N-{2-[2-(hydroxymethyl)phenyl]ethyl}ethanesulfonamide] |
